Assay results: US20200325505A1, “FILAMENTOUS FUNGI CAPABLE OF PRODUCING VERY LONG CHAIN FATTY ACIDS” (UT-Battelle, LLC, priority 2019, published 2020)
Residues, ends and D or L forms follow the SMILES beside them.

Columns and labels:
[1] = tested on: Mortierella elongata AG77; experiment: Nitrogen source utilisation in Biolog 96-well plates, formazan formation after tetrazolium addition; assay type: cell-based; settings: for Metabolized: Metabolized = more formazan formation than a control containing no nitrogen source, observed visually at 2 h, 24 h, 148 h; for Nitrogen sources that Mortierella elongata AG77 can metabolize: text summary of Table 4
Description: Two 300 mL volumes of growth medium comprising 1 g/L KH2PO4, 1 g/L MgSO4 7H2O, 0.1 g/L CaCl2, 0.02 g/L FeNaEDTA, 0.1 g/L NaCl, and either 1 g/L NH4NO3 or 20 g/L sucrose were prepared. […] Aliquots of 200 μL of carbon-free medium or nitrogen-free medium were pipetted into each well of a set of 96-well plates previously prepared with lyophilized putative carbon or nitrogen sources (Biolog Inc., Hayward, Calif.). Inocula were prepared by perforating a culture of Mortierella elongata AG77 grown on 20 g/L potato dextrose agar with a 3 mm diameter cork borer and separating the surface mycelial mat from the solid growth medium using tweezers. Each well was inoculated with one inoculum. Cultures were incubated at 21° C. for 24 hours to allow metabolic changes to stabilize, and then 100 μL of 3 g/L tetrazolium chloride in water was added to each well.
Conclusions were based on rate and intensity of formazan formation using the 3-(4,5-dimethylthiazol-2-yl)-2,5-diphenyltetrazolium bromide ([…]) assay. “Metabolized” indicates more formazan formation than a control containing no nitrogen source, and “Toxic” indicates less formazan formation than a control containing no nitrogen source, “Metabolized” and “Toxic” assignments are mutually exclusive. In this example, a compound may be “Metabolized” or “Toxic,” but not both.

[2] = tested on: Mortierella elongata AG77; experiment: Carbon source utilisation in Biolog 96-well plates, formazan formation after tetrazolium addition; assay type: cell-based; settings: for Metabolized: Metabolized = more formazan formation than a control containing no carbon source, observed visually at 2 h, 24 h, 148 h; for Carbon sources that Mortierella elongata AG77 can metabolize: summary of Table 3
Summary of the method: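 Carbon- or nitrogen-free mineral medium (pH 5.5) was dispensed onto lyophilised carbon or nitrogen sources and inoculated with 3 mm mycelial plugs of M. elongata grown on PDA. After 24 h at 21 °C, tetrazolium chloride was added and formazan was scored visually at 2, 24 and 148 h against a no-carbon-source control.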

[3] = compound as nitrogen source, Toxic = less formazan formation than a control containing no nitrogen source
[4] = compound as carbon source, Toxic = less formazan formation than a control containing no carbon source

SMILES | Metabolized ([1]; compound as nitrogen source) | Toxic [1, 3] | Metabolized ([2]; compound as carbon source) | Toxic [2, 4] | Carbon sources that Mortierella elongata AG77 can metabolize [2] | Toxic [1] | Toxic [2] | Nitrogen sources that Mortierella elongata AG77 can metabolize [1]
NCCO [2-Aminoethanol] | no | no | yes | no | can metabolize | – | – | –
CC(N)=O [Acetamide] | no | no | no | – | – | – | – | –
Nc1ncnc2c1ncn2[C@@H]1O[C@H](CO)[C@@H](O)[C@H]1O [Adenosine] | no | – | yes | – | can metabolize | no | no | –
C[C@@H](N)C(=O)O [D-Alanine] | yes | – | yes | – | can metabolize | no | no | can metabolize
N[C@H](CC(=O)O)C(=O)O [D-Aspartic Acid] | no | – | yes | – | can metabolize | no | no | –
N[C@H]1C(O)O[C@H](CO)[C@@H](O)[C@@H]1O (stereo partly drawn) [D-Glucosamine] | no | – | yes | – | can metabolize | no | no | –
N[C@H](CO)C(=O)O [D-Serine] | no | – | no | – | – | no | no | –
NC(=O)[C@@H](O)[C@@H](O)[C@H](O)[C@@H](O)C=O [Glucuronamide] | no | no | yes | no | can metabolize | – | – | –
NCC(=O)O [Glycine] | yes | – | no | – | – | no | no | can metabolize
NCC(=O)N[C@@H](CCC(=O)O)C(=O)O [Glycyl-L-Glutamic Acid] (H-Gly-Glu-OH) | no | no | no | no | – | – | – | –
OC[C@H]1O[C@@H](n2cnc3c(O)ncnc32)[C@H](O)[C@@H]1O [Inosine] | no | no | yes | no | can metabolize | – | – | –
C[C@H](N)C(=O)O [L-Alanine] | yes | – | no | – | – | no | no | can metabolize
C[C@H](N)C(=O)NCC(=O)O [L-Alanyl-Glycine] (H-Ala-Gly-OH) | no | – | no | – | – | no | no | –
N=C(N)NCCC[C@H](N)C(=O)O [L-Arginine] | no | – | yes | – | can metabolize | no | no | –
NC(=O)C[C@H](N)C(=O)O [L-Asparagine] | no | – | no | – | – | no | yes | –
N[C@@H](CC(=O)O)C(=O)O [L-Aspartic Acid] | no | – | yes | – | can metabolize | no | no | –
N[C@@H](CCC(=O)O)C(=O)O [L-Glutamic Acid] | yes | no | no | no | – | – | – | can metabolize
NC(=O)CC[C@H](N)C(=O)O [L-Glutamine] | yes | – | no | – | – | no | yes | can metabolize

SMILES | Metabolized ([1]; compound as nitrogen source) | Toxic [1, 3] | Metabolized ([2]; compound as carbon source) | Toxic [2, 4] | Carbon sources that Mortierella elongata AG77 can metabolize [2] | Toxic [1] | Toxic [2] | Nitrogen sources that Mortierella elongata AG77 can metabolize [1]
N[C@@H](Cc1c[nH]cn1)C(=O)O [L-Histidine] | yes | – | no | – | – | no | no | can metabolize
N[C@@H](CCO)C(=O)O [L-Homoserine] | yes | – | no | – | – | no | no | can metabolize
CC[C@H](C)[C@H](N)C(=O)O [L-Isoleucine] | yes | – | no | – | – | no | no | can metabolize
CC(C)C[C@H](N)C(=O)O [L-Leucine] | no | – | no | – | – | no | no | –
NCCCC[C@H](N)C(=O)O [L-Lysine] | no | – | no | – | – | no | no | –
CSCC[C@H](N)C(=O)O [L-Methionine] | no | – | no | – | – | no | no | –
N[C@@H](Cc1ccccc1)C(=O)O [L-Phenylalanine] | no | no | yes | no | can metabolize | – | – | –
O=C(O)[C@@H]1CCCN1 [L-Proline] | yes | – | yes | – | can metabolize | no | no | can metabolize
O=C1CC[C@@H](C(=O)O)N1 [L-Pyroglutamic Acid] | no | – | no | – | – | no | no | –
N[C@@H](CO)C(=O)O [L-Serine] | no | – | no | – | – | no | no | –
C[C@@H](O)[C@H](N)C(=O)O [L-Threonine] | no | – | yes | – | can metabolize | no | no | –
CC(C)[C@H](N)C(=O)O [L-Valine] | no | – | no | – | – | no | no | –
CC(=O)N[C@H]1C(O)O[C@H](CO)[C@H](O)[C@@H]1O (stereo partly drawn) [N-Acetyl-D-Galactosamine] | yes | no | no | no | – | – | – | can metabolize
CC(=O)N[C@H]1C(O)O[C@H](CO)[C@@H](O)[C@@H]1O (stereo partly drawn) [N-Acetyl-D-Glucosamine] | yes | no | yes | no | can metabolize | – | – | can metabolize
O=c1[nH]c(=O)c2ncn([C@@H]3O[C@H](CO)[C@@H](O)[C@H]3O)c2[nH]1 [Xanthosine] | no | – | – | – | – | no | – | –
CCC[C@H](N)C(=O)O [α-Amino-N-Valeric Acid] | no | no | – | – | – | – | – | –
NCCCCCC(=O)O [ε-Amino-N-Caproic Acid] | no | no | – | – | – | – | – | –
